Test results from patent US20130337463A1, “Cell-Based Models of Neurodegenerative Disease” (The Trustees of the University of Pennsylvania, priority 2010, published 2013).
pIC50: −log10 of the molar value.

Assays:
[1] = tested on: primary hippocampal neurons derived from WT C57BL6 mice; assay: p-α-syn aggregate formation in primary hippocampal neurons after pff addition; type: cell-based, mouse; conditions: for p-α-syn aggregate formation: pffs added to DIV5 neurons, 2 weeks
Method: Primary neuronal cultures were prepared from E16-E18 C57BL/6 mouse brains (Charles River, Wilmington, Mass.) and α-syn −/− mice (Abeliovich et al., 2000, Neuron 25:239-252). All procedures were performed according to the NIH Guide for the Care and Use of Experimental Animals and were approved by the University of Pennsylvania Institutional Animal Care and Use Committee. Hippocampi were dissected, rinsed with Hank's Balanced Salt Solution (HBSS) and digested in HBSS containing papain (20 U/mL; Worthington Biochemical Corporation; Lakewood, N.J.) containing DNase (20 μg/mL; Worthington Biochemical Corporation; Lakewood, N.J.). Following rinses in plating media (10% fetal bovine serum, 1% penicillin/streptomycin, Glutamax, B27, Neurobasal media; Invitrogen, Carlsbad, Calif.) and HBSS, dissociated hippocampal neurons were plated in plating media onto poly-D-lysine (0.1 mg/mL, diluted in borate buffer, 0.1M, pH8.4) coated coverslips (Carolina Biological Supply, Burlington, N.C.) in 24 well trays at 20,000-40,000 cells/cm^2 or poly-D-lysine coated 60 mm dishes at 70-100,000 cells/cm2. The media was then changed to neuronal media (1% penicillin/streptomycin, Glutamax, B27, Neurobasal media). Most experiments were performed at 19 days in vitro (DIV).
Recombinant full-length and truncated α-syn with and without a C-terminal myc-tag, were purified as previously described (Giasson et al., 2001, J. Biol. Chem. 276:2380-2386). α-syn pffs were generated by incubating purified α-syn (5 mg/mL in PBS) at 37° C. with constant agitation for 5 days, followed by aliquoting and storage at […]. The presence of amyloid was confirmed using Thioflavin T fluorometry. Fibrils of α-syn synthetic NAC peptide (amino acids 61-95) (Biotechnology Resource Center, Yale University) were generated as described (Giasson et al., 2001, J. Biol. Chem. 276:2380-2386). Pffs were diluted in PBS at 0.1 mg/mL, sonicated several times, and diluted in neuronal media. For a 24-well tray, 1 μg/mL of pffs were added, and 5 μg/mL of α-syn pffs were added to a […]. For WGA experiments, α-syn pffs were incubated with 1 μg/mL or 5 μg/mL WGA or preincubated for 1 hr (h) with 0.1 M GlcNAC followed by incubation with media containing α-syn pffs, GlcNAC, and WGA.
Neurons were fixed with 4% paraformaldehyde in PBS containing 4% sucrose followed by permeabilization with 0.1% Triton X-100. To determine if the pathologic α-syn aggregates were detergent-insoluble, neurons were fixed with 4% paraformaldehyde, 4% sucrose and 1% Tx-100 (Luk et al., 2009, Proc. Natl. Acad. Sci. USA 106:20051-20056). Following fixation, neurons were blocked with 3% bovine serum albumin (BSA) in PBS, and incubated in primary antibodies (Table 6) followed by Alex fluor 594 or 488-conjugated secondary antibodies (anti-mouse, anti-rabbit, anti-IgG1 and anti-IgG2a; Invitrogen; Carlsbad, Calif.) diluted in blocking buffer. To assess cell viability, cells were incubated with ethidium homodimer (2 μM, Sigma Aldrich, St. Louis, Mo.) and Hoechst 33342 (1:1000, Invitrogen, Carlsbad, Calif.) and the percent overlap between both dyes was determined using Metamorph software (Molecular Devices, Sunnyvale, Calif.).

[2] = tested on: QBI-WT-Syn cells (QBI-293 cells stably expressing WT α-Syn); assay: α-Syn inclusion formation after Bioporter transduction of QBI-WT-Syn cells; type: cell-based, human; conditions: immunostaining 48 h after transduction
Method: QBI cells were plated in 35-mm tissue culture plates and allowed to reach 80-90% confluence for transduction experiments. Cells were transferred to serum-free media 1 h before transduction. For each plate, 10 μL of cationic-liposomal protein transduction reagent (Bioporter; Sigma) was added to a 1.5-mL Microfuge tube and evaporated as per the manufacturer's guidelines. The resulting reagent dry-film was then directly resuspended with 80 μL of PBS containing α-Syn fibrils (100 μg/mL) fragmented by brief sonication with a hand-held probe. Protein:reagent complexes were allowed to form at room temperature for 10 min, after which the mixture was further diluted in OptiMEM (Invitrogen) and added to cells. Cells were then further incubated for 4 h, washed twice with Versene and 0.5% trypsin/EDTA to remove extracellular α-Syn fibrils, and transferred onto 6-well tissue culture plates or poly(d-lysine)-coated glass coverslips. […]
Cells on coverslips were washed with PBS and fixed with 4% paraformaldehyde. […] Epifluorescence images were obtained by using a Nikon Eclipse 3000 inverted microscope equipped with a CoolSNAP HQ camera (Roper Scientific) and analyzed by using Metamorph 6.0 (Molecular Devices). […] Confocal laser scanning microscopic images were obtained by using a Zeiss LSM510 microscope and analyzed by using Volocity software (Improvision).

[3] = tested on: T40/P301L-transfected cells; assay: Fibril-alone transduction without BioPORTER reagent (spontaneous PFF uptake); type: cell-based, human
Method: For fibril-alone transduction without BioPORTER reagent, cells were placed on starvation medium right before the addition of fibrils. Fibrils were processed as described above and the same amount was used as in reagent-mediated transduction. Cells were trypsinized and replated either 4 hr or 30 hr after the initial addition of fibrils. For experiments using WGA, different doses of WGA were added to starvation medium together with PFFs. To inhibit endocytosis of WGA, 0.1 M GlcNAc was incubated with medium containing PFFs and 10 µg/ml WGA for 1 hr at 37° C. before being added to cells which were pre-incubated in 0.1M GlcNAc-containing medium for 1 hr. Cells were placed on WGA-free starvation medium 5-6 hr after fibril addition and fixed after overnight incubation to minimize possible toxicity resulted from WGA treatment.
Immunocytochemistry was performed 48 hr after the initial addition of fibrils unless indicated otherwise. Cells were fixed in 4% paraformaldehyde (PFA) for 10 min and permeabilized with 0.1% Triton-X100 for 15 min, or fixed with 4% PFA containing 1% Triton-X100 for 15 min to remove soluble proteins. For visualization of microtubules, cells were fixed with 0.3% glutaraldehyde in PEM buffer (80 mM PIPES, pH6.8, 5 mM EGTA, 1 mM MgCl2) for 10 min, extracted with 1% Triton-X100 for 15 min before being quenched with 10 mg/ml sodium borohydride for 7 min followed by 0.1 M glycine for 20 min. […]
For quantifying the percentage of cells developing tau aggregates with different combinations of endogenous tau and PFFs, 10-20 random-field images were taken at 40× magnification for each combination and at least two independent experiments were performed. For quantification of MT-bundling and PFF-induced tau aggregation in the absence of bioPORTER reagent under various conditions (i.e. different temperatures, with or without WGA/GlcNAc), 10 random-field images were taken at 20× magnification for each condition in each experiment and 3-4 independent experiments were performed. […]

AMPAR = conditions: published (Dev et al., 1996); cited from earlier work

## α-syn-58-140: human α-syn pffs composed of residues 58-140
[1]
  p-α-syn aggregate formation: seeded formation of endogenous mouse α-syn aggregates

## α-syn-NAC: fibrils of α-syn synthetic NAC peptide (amino acids 61-95)
[1]
  p-α-syn aggregate formation: resulted in endogenous mouse α-syn fibrillar LB-like aggregates

## β-galactosidase: unrelated soluble protein
[2]
  inclusion formation: did not result in inclusion formation

## α-syn-1-89: human α-syn pffs composed of residues 1-89
[1]
  p-α-syn aggregate formation: robust accumulation of endogenous p-α-syn aggregates

## CC(=O)N[C@H]1C(O)O[C@H](CO)[C@@H](O)[C@@H]1O (stereo partly shown) [GlcNAc, N-acetyl glucosamine]
[3]; 0.1 M GlcNAc added to the medium
  effect on WGA-enhanced PFF uptake and tau aggregation: significantly attenuated
[1]; 0.1 M GlcNAc
  effect on WGA-enhanced aggregate formation: reduced the effects of WGA on α-syn pff-induced aggregate formation

## wheat germ agglutinin [WGA]
[3]; co-incubated with myc-K18/P301L PFFs, 0, 5, 10, 15 µg/ml WGA
  effect on prevalence of tau aggregate-bearing cells: increased the prevalence of tau aggregate-bearing cells
[3]; up to 15 µg/ml of WGA
  accumulation of insoluble tau in the absence of PFFs: nor does it induce accumulation of insoluble tau in the absence of PFFs
[1]; co-incubation with α-syn-hWT pffs, 1 or 5 μg/mL WGA, 4 days
  effect on extent of p-α-syn pathology: dose-dependently increased the extent of p-α-syn pathology

## NS(=O)(=O)c1cccc2c1c([N+](=O)[O-])cc1nc(O)c(O)nc12 [NBQX]
AMPAR
  pIC50: 7.33
